These molecules were tested against T1, human P2Y12 receptor (Homo sapiens, UniProt Q9H244) (assay: P2Y12 receptor binding assay (displacement of tritium-labeled 2-methyl-S-ADP on CHO cells)). Settings: CHO cells with recombinant human P2Y12 receptor, 2 hours at room temperature.
T1 construct: expressed in transfected cells; host or cells: CHO (Chinese Hamster Ovary) cells
Procedure: The ability of the compounds of formulae (I) and (III) to bind to the P2Y12 receptor may be measured by methods similar to those described in Gachet C. et al., Br. J. Hematol. 1995, 91, 434-444 and by the method described below in Example 16.
Chinese Hamster Ovary (CHO) cells with recombinant expression of the human P2Y12 receptor were cultured in 24 well cell-culture plates. Cells were washed three times with binding buffer (50 mM Tris pH 7.4, 100 mM NaCl, 1 mM EDTA, 0.5% BSA). The cells were then incubated with 0.5 ml per well binding buffer containing tritium-labeled 2-methyl-thio-adenosine 5′-diphosphate (2-methyl-S-ADP) (between 100'000 and 300'000 dpm per well) and various concentrations of test compounds. After incubation at room temperature for 2 hours, cells were washed three times with binding buffer. Then, cells were solubilized by addition of 0.5 ml solubilization buffer (SDS, NaOH, EDTA). The content of each well was then transferred into beta-counter vials and 2.0 ml of Ultima Gold Scintillation liquid was added.
The test is conducted as described hereinabove. […] Exemplary IC50 values are given below.

T1 sequence (Q9H244 whole entry): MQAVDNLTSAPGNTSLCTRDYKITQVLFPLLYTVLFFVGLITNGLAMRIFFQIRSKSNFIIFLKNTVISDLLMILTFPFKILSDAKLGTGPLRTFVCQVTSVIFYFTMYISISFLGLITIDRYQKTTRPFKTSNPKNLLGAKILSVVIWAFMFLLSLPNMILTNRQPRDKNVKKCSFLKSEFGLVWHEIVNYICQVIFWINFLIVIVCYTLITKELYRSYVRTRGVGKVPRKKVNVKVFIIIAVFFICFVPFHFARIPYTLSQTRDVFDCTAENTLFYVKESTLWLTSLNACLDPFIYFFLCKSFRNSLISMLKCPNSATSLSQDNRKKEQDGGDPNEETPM

IC50 | Compound
24 nM | CCCOc1ccc(C=C2C(=O)NN(c3ccccc3)C2=O)c(C)c1C [Example 1, 4-(2,3-Dimethyl-4-propoxy-benzylidene)-1-phenyl-pyrazolidine-3,5-dione]
190 nM | COc1ccc(C=C2C(=O)NN(c3ccccc3)C2=O)c(C)c1C [Example 2a7, 4-(2,3-Dimethyl-4-methoxy-benzylidene)-1-phenyl-pyrazolidine-3,5-dione]
470 nM | CCOc1ccc(C=C2C(=O)NN(c3ccccc3)C2=O)cc1C [Example 2a12, 4-(4-Ethoxy-3-methyl-benzylidene)-1-phenyl-pyrazolidine-3,5-dione]
30 nM | CCCOc1ccc(C=C2C(=O)NN(c3ccccc3)C2=O)c2c1CCCC2 [Example 2a25, 1-Phenyl-4-(4-propoxy-5,6,7,8-tetrahydro-naphthalen-1-ylmethylene)-pyrazolidine-3,5-dione]
10 nM | CCCOc1ccc(C=C2C(=O)NN(c3ccccc3)C2=O)c2cnccc12 [Example 2a30, 1-Phenyl-4-[1-(5-propoxy-isoquinolin-8-yl)-methylidene]-pyrazolidine-3,5-dione]
370 nM | CCCOc1ccc(C=C2C(=O)NN(c3ccccc3)C2=O)c(OCCC)n1 [Example 2a35, 4-[1-(2,6-Dipropoxy-pyridin-3-yl)-methylidene]-1-phenyl-pyrazolidine-3,5-dione]
15 nM | CCCOc1ccc(C=C2C(=O)NN(c3ccccc3)C2=O)c(OCCOC)c1C [Example 2a39, 4-[1-[2-(2-Methoxy-ethoxy)-3-methyl-4-propoxy-phenyl]-methylidene]-1-phenyl-pyrazolidine-3,5-dione]
1.6 nM | CCCOc1ccc(C=C2C(=O)NN(c3ccccc3)C2=O)c(OCCCCC(=O)O)c1C [Example 2a52, 4-[1-[2-(4-Carboxy-butyloxy)-3-methyl-4-propoxy-phenyl]-methylidene]-1-phenyl-pyrazolidine-3,5-dione]
1 nM | CCCOc1ccc(C=C2C(=O)NN(c3ccccc3)C2=O)c(OC[C@H](O)CC(=O)O)c1C [Example 2a63, 4-[1-[2-((2R)-3-Carboxy-2-hydroxy-propoxy)-3-methyl-4-propoxy-phenyl]-methylidene]-1-phenyl-pyrazolidine-3,5-dione]
0.8 nM | CCCOc1ccc(C=C2C(=O)NN(c3ccccc3)C2=O)c(OC[C@@H](O)CC(=O)O)c1C [Example 2a64, 4-[1-[2-((2S)-3-Carboxy-2-hydroxy-propoxy)-3-methyl-4-propoxy-phenyl]-methylidene]-1-phenyl-pyrazolidine-3,5-dione]
3 nM | CCCOc1ccc(C=C2C(=O)NN(c3ccccc3)C2=O)c(OC[C@H](O)[C@@H](O)C(=O)O)c1C [Example 2a71, 4-[1-[2-((2S,3R)-3-carboxy-2,3-dihydroxy-propoxy)-3-methyl-4-propoxy-phenyl]-methylidene]-1-phenyl-pyrazolidine-3,5-dione]
140 nM | CCCOc1ccc(C=C2C(=O)NN(c3ccccn3)C2=O)c(C)c1C [Example 4a2, 4-(2,3-Dimethyl-4-propoxy-benzylidene)-1-pyridin-2-yl-pyrazolidine-3,5-dione]
83 nM | CCCOc1ccc(C=C2C(=O)NN(c3ccc(F)cc3)C2=O)c(C)c1C [Example 8a, 4-(2,3-Dimethyl-4-propoxy-benzylidene)-1-(4-fluoro-phenyl)-pyrazolidine-3,5-dione]
55 nM | CCCOc1ccc(C=C2C(=O)NNC2=O)c2c1CCCC2 [Example 12a3, 4-(4-Propoxy-5,6,7,8-tetrahydro-naphthalen-1-ylmethylene)-pyrazolidine-3,5-dione]
40 nM | CCCOc1ccc(C=C2C(=O)NNC2=O)c(OCCC)c1C [Example 12a9, 4-(3-Methyl-2,4-dipropoxy-benzylidene)-pyrazolidine-3,5-dione]
9600 nM | CCCOc1ccc(C=C2C(=O)NN(C(C)=O)C2=O)c(C)c1C [Example 15, 1-Acetyl-4-[1-(2,3-dimethyl-4-propoxy-phenyl)-methylidene]-pyrazolidine-3,5-dione]

Compound | IC50
CCCOc1ccc(C=C2C(=O)NN(c3ccccc3)C2=O)c(OCCCCO)c1C [Example 2a43, 4-[1-[2-(4-Hydroxy-butoxy)-3-methyl-4-propoxy-phenyl]-methylidene]-1-phenyl-pyrazolidine-3,5-dione] | 5 nM
